Data on 36 molecules can be found in ChEMBL document CHEMBL1149949, “Nonpeptidic HIV protease inhibitors: 3-(S-benzyl substituted)-4-hydroxy-6-(phenyl substituted)-2H-pyran-2-one with an inverse mode of binding” (Bioorg Med Chem Lett, 1996).

This assay addresses Human immunodeficiency virus type 1 protease (Human immunodeficiency virus 1, UniProt Q72874). Put plainly: In vitro inhibitory activity against HIV-1 protease(PR).

For the molecule `Cc1ccc(CSc2c(O)cc(-c3ccccc3)oc2=O)cc1`, the IC50 worked out at 4580 nM.
In the case of `COc1ccc(-c2cc(O)c(SCc3ccccc3)c(=O)o2)cc1C`, half-maximal inhibition (IC50) was put at 740 nM.
For the molecule `O=c1cc(-c2ccccc2)oc(O)c1SCc1ccc2c(c1)OCCO2`, the IC50 amounted to 3420 nM.
As for `COC(=O)c1cccc(CSc2c(O)cc(-c3ccccc3)oc2=O)c1`, the figure is 19300 nM; as for `Cc1cc(-c2cc(O)c(SCc3ccccc3)c(=O)o2)cc(C)c1O`, 250 nM.
The result for `COC(=O)c1ccc(CSc2c(O)cc(-c3ccccc3)oc2=O)cc1` reads over 10000 nM; that for `O=c1cc(-c2ccc3c(c2)OCCO3)oc(O)c1SCc1ccccc1`, 790 nM.
The result for `O=C(OC1CCCC1)c1ccccc1CSc1c(O)oc(-c2ccccc2)cc1=O` reads 50 nM.
Consider `O=c1cc(-c2ccccc2O)oc(O)c1SCc1ccccc1`, for which the IC50 was found to be 6000 nM.
As for `O=C(O)c1ccccc1CSc1c(O)cc(-c2ccccc2)oc1=O`, the figure is 24800 nM.
As to `O=c1cc(-c2ccc(O)cc2)oc(O)c1SCc1ccccc1`, the IC50 was found to be 690 nM. Against the preceding molecule, the IC50 is about 36-fold lower.
As for `Cc1ccccc1-c1cc(O)c(SCc2ccccc2)c(=O)o1`, the figure is 14200 nM; as for `O=c1cc(-c2ccccc2Cl)oc(O)c1SCc1ccccc1`, 2540 nM.
As for `Cc1cc(C)cc(-c2cc(O)c(SCc3ccccc3)c(=O)o2)c1`, the figure is 260 nM.
As for `O=c1cc(-c2cccc(Cl)c2)oc(O)c1SCc1ccccc1`, the figure is 690 nM; as for `Cc1cccc(-c2cc(O)c(SCc3ccccc3)c(=O)o2)c1`, 860 nM.
Molecule `COc1cccc(-c2cc(O)c(SCc3ccccc3)c(=O)o2)c1` yielded an IC50 of 990 nM.
As for `O=C(O)c1cccc(CSc2c(O)cc(-c3ccccc3)oc2=O)c1`, the figure is 6150 nM; as for `O=C(O)c1ccc(-c2cc(O)c(SCc3ccccc3)c(=O)o2)cc1`, 360 nM; as for `O=C(OC1CCCCC1)c1ccccc1CSc1c(O)oc(-c2ccccc2)cc1=O`, 1200 nM.
Regarding `O=c1cc(-c2ccccc2)oc(O)c1SCc1ccccc1`, the IC50 worked out at 1700 nM.
As for `Cc1ccc(-c2cc(O)c(SCc3ccccc3)c(=O)o2)cc1`, the figure is 12300 nM.
The result for `COC(=O)c1ccccc1CSc1c(O)cc(-c2ccccc2)oc1=O` reads 1000 nM.
The molecule `Cc1cccc(CSc2c(O)cc(-c3ccccc3)oc2=O)c1` returned an IC50 of 8540 nM.
The result for `COC(=O)c1ccc(-c2cc(O)c(SCc3ccccc3)c(=O)o2)cc1` reads over 100000 nM; that for `CC(C)(C)NC(=O)c1ccccc1CSc1c(O)cc(-c2ccccc2)oc1=O`, 190 nM.
Turning to `O=c1cc(-c2cccc(O)c2)oc(O)c1SCc1ccccc1`, half-maximal inhibition (IC50) was put at 1190 nM.
As for `CC(C)COC(=O)c1ccccc1CSc1c(O)cc(-c2ccccc2)oc1=O`, the figure is 619 nM.
The result for `CCc1cccc(-c2cc(O)c(SCc3ccccc3)c(=O)o2)c1` reads 2040 nM.
The result for `COc1ccc(-c2cc(O)c(SCc3ccccc3)c(=O)o2)cc1` reads 1630 nM.
`O=c1cc(-c2cc(C(F)(F)F)cc(C(F)(F)F)c2)oc(O)c1SCc1ccccc1` returned an IC50 of 630 nM. This IC50 is about 2.6-fold lower than that of the molecule before.
`CC(C)OC(=O)c1ccccc1CSc1c(O)cc(-c2ccccc2)oc1=O` returned an IC50 of 34 nM.
As for `O=c1cc(-c2cccc(C(F)(F)F)c2)oc(O)c1SCc1ccccc1`, the figure is 600 nM.
The result for `Cc1ccccc1CSc1c(O)cc(-c2ccccc2)oc1=O` reads 5370 nM; that for `O=C(O)c1ccc(CSc2c(O)cc(-c3ccccc3)oc2=O)cc1`, 10200 nM; that for `O=c1cc(-c2cccc(OC(F)(F)F)c2)oc(O)c1SCc1ccccc1`, 2140 nM.

By IC50 is commonly meant the midpoint of a concentration-inhibition curve.
